Holding throughout (assay type): functional
In test [1] the test system is Escherichia coli. Description: Antibacterial activity against Escherichia coli ATCC 25922 after 24 hrs by micro broth dilution method. The following applies: ATCC 25922, 24 h. In general terms: In broth dilution the organism is exposed to a series of concentrations in liquid medium.
Test [2] relates to Staphylococcus aureus. Nature of the test: Antibacterial activity against Staphylococcus aureus ATCC 25923 after 24 hrs by micro broth dilution method. The following applies: ATCC 25923, 24 h.
Test [3] has as its system Staphylococcus aureus. Nature of the test: Antibacterial activity against drug-resistant Staphylococcus aureus after 24 hrs by micro broth dilution method.
Test [4] concerns Candida albicans. Nature of the test: Antifungal activity against Candida albicans ATCC 90023 after 24 hrs by micro broth dilution method. The following applies: ATCC 90023, 24 h.
A further test deals with Candida tropicalis. Description: Antifungal activity against Candida tropicalis after 24 hrs by micro broth dilution method.
Test [5] relates to Pseudomonas aeruginosa. Nature of the test: Antibacterial activity against Pseudomonas aeruginosa ATCC 27853 after 24 hrs by micro broth dilution method. The following applies: ATCC 27853, 24 h.
For test [6], the system named is Pseudomonas aeruginosa. Nature of the test: Antibacterial activity against drug-resistant Pseudomonas aeruginosa after 24 hrs by micro broth dilution method.
For test [7], the system named is Staphylococcus aureus. Nature of the test: Antibacterial activity against methicillin-resistant Staphylococcus aureus N315 after 24 hrs by micro broth dilution method. The following applies: N315, 24 h.
Test [8] has as its system Candida albicans. Description: Antifungal activity against drug-resistant Candida albicans after 24 hrs by micro broth dilution method.
Test [9] deals with Staphylococcus aureus. Description: Antibacterial activity against Staphylococcus aureus ATCC 29213 after 24 hrs by micro broth dilution method. The following applies: ATCC 29213, 24 h.
The subject of test [10] is Pseudomonas aeruginosa. Description: Potency index, ratio of norfloxacin MIC to compound MIC for Pseudomonas aeruginosa ATCC 27853.
Test [11] has as its system Escherichia coli. Description: Antibacterial activity against drug-resistant Escherichia coli after 24 hrs by micro broth dilution method.

Converted amounts (≈) assume the structure as drawn.

From ChEMBL document CHEMBL4177646, “Discovery of novel nitroimidazole enols as Pseudomonas aeruginosa DNA cleavage agents” (Bioorg Med Chem, 2017) come the findings set out here.

Regarding `CC(=O)/C(=C\c1c[nH]c2ccccc12)n1c([N+](=O)[O-])cnc1C`, the MIC came out at 420 µM (≈ 130 µg/mL) in the test on Escherichia coli [1]; 830 µM (≈ 258 µg/mL) against Staphylococcus aureus [2]; 1650 µM (≈ 512 µg/mL) with Staphylococcus aureus [3]; 512 mg/L (≈ 1650 µM) against Candida albicans [4]; 512 mg/L (≈ 1650 µM) against Candida tropicalis; 420 µM (≈ 130 µg/mL) in the test with Pseudomonas aeruginosa [5]. The minimum inhibitory concentration (MIC) against Pseudomonas aeruginosa [6] is 420 µM (≈ 130 µg/mL); against Staphylococcus aureus [7], 830 µM (≈ 258 µg/mL); in the test on Candida albicans [8], 512 mg/L (≈ 1650 µM); with Staphylococcus aureus [9] it was 830 µM (≈ 258 µg/mL); against Escherichia coli [11], 1650 µM (≈ 512 µg/mL). Further, the Ratio with Pseudomonas aeruginosa [10] is 4 - 16.
Consider `CC(=O)/C(=C\c1ccc(N(C)C)cc1)n1c([N+](=O)[O-])cnc1C`, for which the minimum inhibitory concentration (MIC) with Escherichia coli [1] was found to be 810 µM (≈ 255 µg/mL); with Staphylococcus aureus [2], 1620 µM (≈ 509 µg/mL); with Staphylococcus aureus [3], 1620 µM (≈ 509 µg/mL); in the test with Candida albicans [4] it was 128 mg/L (≈ 407 µM); against Candida tropicalis it was 256 mg/L (≈ 814 µM); with Pseudomonas aeruginosa [5], 410 µM (≈ 129 µg/mL). Moreover, the MIC in the test with Pseudomonas aeruginosa [6] was determined as 1620 µM (≈ 509 µg/mL); with Staphylococcus aureus [7] it was 1620 µM (≈ 509 µg/mL); against Candida albicans [8], 512 mg/L (≈ 1630 µM); against Staphylococcus aureus [9], 410 µM (≈ 129 µg/mL); with Escherichia coli [11] it was 810 µM (≈ 255 µg/mL). The Ratio with Pseudomonas aeruginosa [10] is on record as 4 - 16.
In the case of `Cc1ncc([N+](=O)[O-])n1/C(=C/c1ccccc1)C(C)O` (stereo not given), the MIC was found to be 1870 µM (≈ 511 µg/mL) against Escherichia coli [1]; 1870 µM (≈ 511 µg/mL) in the test on Staphylococcus aureus [2]; 1870 µM (≈ 511 µg/mL) against Staphylococcus aureus [3]; 16 mg/L (≈ 58.5 µM) against Candida albicans [4]; 128 mg/L (≈ 468 µM) against Candida tropicalis; 230 µM (≈ 62.9 µg/mL) against Pseudomonas aeruginosa [5]. Moreover, the MIC in the test on Pseudomonas aeruginosa [6] amounted to 940 µM (≈ 257 µg/mL); with Staphylococcus aureus [7] it was 1870 µM (≈ 511 µg/mL); in the test on Candida albicans [8], 512 mg/L (≈ 1870 µM); against Staphylococcus aureus [9], 1870 µM (≈ 511 µg/mL); in the test on Escherichia coli [11] it was 1870 µM (≈ 511 µg/mL). The Ratio in the test on Pseudomonas aeruginosa [10] was 4 - 16.
For the compound `CC(=O)/C(=C\c1ccc(C#N)cc1)n1c([N+](=O)[O-])cnc1C`, the MIC against Escherichia coli [1] was determined as 860 µM (≈ 255 µg/mL); against Staphylococcus aureus [2], 860 µM (≈ 255 µg/mL); against Staphylococcus aureus [3] it was 1720 µM (≈ 510 µg/mL); against Candida albicans [4], 128 mg/L (≈ 432 µM); against Candida tropicalis it was 256 mg/L (≈ 864 µM); in the test with Pseudomonas aeruginosa [5] it was 860 µM (≈ 255 µg/mL). Moreover, the MIC stood at 430 µM (≈ 127 µg/mL) in the test on Pseudomonas aeruginosa [6]; 1720 µM (≈ 510 µg/mL) against Staphylococcus aureus [7]; 256 mg/L (≈ 864 µM) against Candida albicans [8]; 860 µM (≈ 255 µg/mL) against Staphylococcus aureus [9]; 1720 µM (≈ 510 µg/mL) in the test on Escherichia coli [11].
Regarding `Cc1ncc([N+](=O)[O-])n1/C(=C/c1ccc(C#N)cc1)C(C)O` (stereo not given), the MIC in the test with Escherichia coli [1] was 860 µM (≈ 257 µg/mL); with Staphylococcus aureus [2], 1710 µM (≈ 510 µg/mL); against Staphylococcus aureus [3], 1710 µM (≈ 510 µg/mL); against Candida albicans [4] it was 64 mg/L (≈ 215 µM); in the test with Candida tropicalis, 512 mg/L (≈ 1720 µM); in the test on Pseudomonas aeruginosa [5], 860 µM (≈ 257 µg/mL). The minimal inhibitory concentration (MIC) in the test with Pseudomonas aeruginosa [6] was determined as 1710 µM (≈ 510 µg/mL); against Staphylococcus aureus [7], 1710 µM (≈ 510 µg/mL); against Candida albicans [8] it was 512 mg/L (≈ 1720 µM); with Staphylococcus aureus [9], 1710 µM (≈ 510 µg/mL); in the test with Escherichia coli [11] it was 1710 µM (≈ 510 µg/mL).
On to `CC(=O)/C(=C\c1ccc(Cl)cc1Cl)n1c([N+](=O)[O-])cnc1C`, for which the MIC in the test with Escherichia coli [1] came to 1650 µM (≈ 561 µg/mL); against Staphylococcus aureus [2], 830 µM (≈ 282 µg/mL); against Staphylococcus aureus [3], 1650 µM (≈ 561 µg/mL); in the test on Candida albicans [4] it was 128 mg/L (≈ 376 µM); with Candida tropicalis it was 512 mg/L (≈ 1510 µM); in the test with Pseudomonas aeruginosa [5] it was 830 µM (≈ 282 µg/mL). Further, the MIC is 1650 µM (≈ 561 µg/mL) in the test on Pseudomonas aeruginosa [6]; 1650 µM (≈ 561 µg/mL) with Staphylococcus aureus [7]; 512 mg/L (≈ 1510 µM) against Candida albicans [8]; 1650 µM (≈ 561 µg/mL) with Staphylococcus aureus [9]; 1650 µM (≈ 561 µg/mL) in the test with Escherichia coli [11].
For `Cc1ncc([N+](=O)[O-])n1/C(=C/c1ccccc1Cl)C(C)O` (stereo not given), the minimal inhibitory concentration (MIC) was 210 µM (≈ 64.6 µg/mL) in the test with Escherichia coli [1]; 1670 µM (≈ 514 µg/mL) in the test with Staphylococcus aureus [2]; 1670 µM (≈ 514 µg/mL) against Staphylococcus aureus [3]; 32 mg/L (≈ 104 µM) against Candida albicans [4]; 512 mg/L (≈ 1660 µM) in the test with Candida tropicalis; 830 µM (≈ 255 µg/mL) against Pseudomonas aeruginosa [5]. The MIC is 1670 µM (≈ 514 µg/mL) with Pseudomonas aeruginosa [6]; 1670 µM (≈ 514 µg/mL) against Staphylococcus aureus [7]; 512 mg/L (≈ 1660 µM) in the test on Candida albicans [8]; 1670 µM (≈ 514 µg/mL) against Staphylococcus aureus [9]; 1670 µM (≈ 514 µg/mL) in the test with Escherichia coli [11].
With `Cc1ncc([N+](=O)[O-])n1/C(=C/c1ccc(Cl)cc1)C(C)O` (stereo not given), the MIC came to 1670 µM (≈ 514 µg/mL) in the test on Escherichia coli [1]; 1670 µM (≈ 514 µg/mL) against Staphylococcus aureus [2]; 830 µM (≈ 255 µg/mL) in the test with Staphylococcus aureus [3]; 16 mg/L (≈ 52 µM) in the test with Candida albicans [4]; 256 mg/L (≈ 832 µM) in the test on Candida tropicalis; 410 µM (≈ 126 µg/mL) against Pseudomonas aeruginosa [5]. Moreover, the MIC against Pseudomonas aeruginosa [6] amounted to 1670 µM (≈ 514 µg/mL); in the test on Staphylococcus aureus [7] it was 1670 µM (≈ 514 µg/mL); with Candida albicans [8], 512 mg/L (≈ 1660 µM); with Staphylococcus aureus [9], 830 µM (≈ 255 µg/mL); against Escherichia coli [11], 1670 µM (≈ 514 µg/mL).
For the compound `CC(=O)/C(=C\c1ccc(Cl)cc1)n1c([N+](=O)[O-])cnc1C`, the MIC against Escherichia coli [1] was 410 µM (≈ 125 µg/mL); in the test on Staphylococcus aureus [2], 1640 µM (≈ 501 µg/mL); against Staphylococcus aureus [3], 210 µM (≈ 64.2 µg/mL); in the test with Candida albicans [4] it was 128 mg/L (≈ 419 µM); against Candida tropicalis, 128 mg/L (≈ 419 µM); against Pseudomonas aeruginosa [5] it was 820 µM (≈ 251 µg/mL). Moreover, the MIC against Pseudomonas aeruginosa [6] was determined as 1640 µM (≈ 501 µg/mL); with Staphylococcus aureus [7], 1640 µM (≈ 501 µg/mL); against Candida albicans [8] it was 512 mg/L (≈ 1670 µM); against Staphylococcus aureus [9], 1640 µM (≈ 501 µg/mL); with Escherichia coli [11], 1640 µM (≈ 501 µg/mL).
For the compound `CCn1cc(C(=O)O)c(=O)c2cc(F)c(N3CCNCC3)cc21` [NORFLOXACIN], the MIC was determined as 50 µM (≈ 16 µg/mL) in the test with Escherichia coli [1]; 100 µM (≈ 31.9 µg/mL) with Staphylococcus aureus [2]; 200 µM (≈ 63.9 µg/mL) in the test with Staphylococcus aureus [3]; 1600 µM (≈ 511 µg/mL) against Pseudomonas aeruginosa [5]; 1600 µM (≈ 511 µg/mL) in the test on Pseudomonas aeruginosa [6]; 1600 µM (≈ 511 µg/mL) against Staphylococcus aureus [7]. The values for the MIC against Staphylococcus aureus [9] and against Escherichia coli [11] were 25 µM (≈ 7.98 µg/mL) and 1600 µM (≈ 511 µg/mL), respectively.

As a reminder, the MIC is the lowest concentration that inhibits growth of the organism. Read a low MIC as greater potency.
